Test results from patent publication US20210108199A1, “Treatment for aggressive cancers by targeting C9ORF72” (The Trustees of Columbia University in the City of New York, priority 2017, published 2021).
Structures can show the parent of a compound that is named as a salt. Where a SMILES comes first, the peptide text is derived from it. The star is where a group is joined. Cbz = O=C(OCc1ccccc1)*; CH2F = FC*

Legend:
Format in all cases: cell-based
U87 cells [1] = assay: Macropinocytosis inhibition with EIPA; conditions: C9 KD U87 cells, 20 μM EIPA vs DMSO
Experimental: Cell were treated with control and C9 siRNA. After 6 hours, media were replaced and control and siC9 cells were either treated with DMSO or with 20 μM 5-(N-Ethyl-N-isopropyl) amiloride (Sigma™, A3085). After 3 days, cells were then imaged using Nikon Eclipse™ Ts2-FL Inverted Fluorescence Microscope and vacuoles from images were quantitated using ImageJ™.
In another study to further confirm the macropinocytotic origin of the vacuoles, 5-(N-ethyl-N-isopropyl) amiloride (EIPA), a macropinocytosis inhibitor was used.
FIG. 9 presents phase contrast images (40×) of U87 cells treated with control or C9 siRNA (SEQ ID NO;631) and incubated in DMSO (siCtrl+DMSO and siC9+DMSO, respectively) or in 20 μM Amiloride (siCtrl+EIPA 20 μM and siC9+EIPA 20 μM, respectively). The scale bar represents 10 μm. WB on the right represents C9 KD efficiency in EIPA treated U87 cells. […] Statistical significance was assessed by an unpaired t-test: NS P>0.05, *P≤0.05, **P≤0.01, ***P≤0.001 ****P≤0.0001.

U87 cells [2] = assay: RAC1 inhibition with NSC23766, vacuoles per cell; conditions: C9 KD U87 cells, 100 μM NSC23766 vs DMSO, 3 days
Experimental: Macropinocytosis is known to depends on RAC1 activation which induces membrane ruffling (through actin rearrangement) that mature into macropinosomes. If the accumulated vacuoles are of macropinocytotic origin, then inhibition of RAC1 should rescue their accumulation. To test this, cells were treated with control or C9 siRNA in combination with NSC23766 (NSC), a RAC1 inhibitor.
FIG. 11A, FIG. 11B, FIG. 11C and FIG. 11D are a set of phase contrast images (20×) of U87 cells treated with control or C9 siRNA (SEQ ID NO:631) and incubated in DMSO (siCtrl+DMSO and siC9+DMSO, respectively) or in 100 μM RAC1 inhibitor NSC23766 (siCtrl+NSC and siC9+NSC, respectively). The scale bar represents 10 μm. […] FIG. 12 is a graph representing quantitation of the data for U87 cells treated with control (n=76) siRNA and DMSO (blue dots), U87 cells treated with C9 siRNA (n=41) with DMSO (red squares), U87 cells treated with control (n=74) siRNA and 100 μm of NSC (green dots), and U87 cells treated with C9 siRNA (n=73) with 100 μm of NSC (purple dots). Statistical significance was assessed by an unpaired t-test: NS P>0.05, *P≤0.05, **P≤0.01, ***P≤0.001 ****P≤0.0001.

U87 cells [3] = assay: Viability rescue with caspase inhibitor Z-VAD-FMK
Experimental: For viability assays (performed in 6-well plates), cells were harvested using trypsin (0.5 ml per well) and the media were saved from each well. The saved media was re-suspended with the trypsinised cells and 2-3 aliquots (50 μL each) of this suspension were taken into a 96-well plates. CellTiter-Glo™ (CTG) Luminescent Viability assay was used to measure the viability of these aliquots. CTG-media mixture (150 μL) were added to each well. The rest of the culture was used to extract protein. The viability of cells was measured using the 1:1 dilution of the CellTiter-Glo™ Luminescent reagent (Promega™, cat #G7573) with media, which was read on Victor™ 5 plate reader after 10 minutes of shaking at room temperature. The intensity of luminescence was normalized to that of the DMSO (Sigma™, D5879) control.
To confirm that cells undergo non-apoptotic death, apoptosis was blocked with a broad caspase inhibitor Z-VAD-FMK upon C9 KD. […] Additionally, the apoptosis inducer, staurosporine (STS), was used to asses Z-VAD-FMK efficacy. […] A beta galactosidase staining technique was used to asses senescence upon C9 KD. […] See FIG. 20, for which U87 cells were treated with control (siCtrl) and C9 (siC9; SEQ ID NO:631) siRNA and then subjected to β-Galactosidase Staining.

p53 [4] = assay: p53 western blot in p53 null U87 cells treated with doxorubicin; conditions: p53 null U87 cells (KO #4)
Experimental: To generate p53 knockout clones, U87 cells (7×10^5) were transfected with 2 μg p53 CRISPR/Cas9 KO plasmid (Santa Cruz Biotech™, sc-416469) using Lipofectamine 2000 (ThermoFisher™). Two days later, cells were treated with Nutlin-3 (10 μM) for 12 days to inhibit proliferation of cells with wild type p53, thereby enriching for p53 knockout cells. Single-cell clones were selected via limiting dilution, and p53 knockout clones were confirmed by western blotting using p53 antibody (FL-393).
To further validate the dependency of vacuolization on p53, two p53 null cell lines were generated using CRISPR. First, the cells lack of p53 was validated by treating them doxorubicin, […]. […] See FIG. 31, which is a WB showing p53 levels in wtp53 U87 (WT p53) cells and in p53 null U87 cells treated with DMSO (KO #4+DMSO) or DOX (KO #4+DOX).

U87 cells [5] = assay: TUNEL assay for DNA breaks; conditions: vs control
Experimental: Cells were treated with control and C9 siRNA for three days. On day three, cells were collected for TUNEL assay using the FlowTACS kit (TREVIGEN™, 4817-60-K) according to manufacturer's instructions to detect DNA fragmentation. For a positive control, DNA damage was induced using doxorubicin. Data were collected on a FACSCalibur™ flow cytometer (Becton Dickinson™) and data analysis performed on FlowJo™.
ROS can cause oxidative DNA damage. Since elevated ROS levels were observed under C9 KD conditions, it may cause increase in DNA damage. To test this hypothesis, a TUNEL assay was used to measure DNA breaks. […] In addition to C9KD, U87 cells were treated with a known chemotherapeutic DNA damage-inducing drug to serve as a positive control for DNA damage (see FIG. 23). FIG. 23 presents data for the TUNEL assay of U87 cells treated as described for FIG. 21 and for positive DNA-damage control with 0.5 μM doxorubicin (DOX). FIG. 23A presents data for the percentage of cells with DNA fragmentation (shown by DNA damage) comparing control (siCtrl) C9 KD (siC9; SEQ ID NO:631) and DOX-treated cells as measured by FACS analysis. […] FIG. 24 is a set of graphs showing data for cells treated as described for FIG. 23, with the exception of using a different C9 siRNA, indicated as siC9 #2 (SEQ ID NO:633).

p53 [6] = assay: Western blot of phospho-p53, p53 and p21; conditions: U87 cells
Experimental: For Western blot analysis, cells were lysed with lysis buffer (20 mM sodium phosphate (pH 7.0), 250 mM NaCl, 30 mM sodium pyrophosphate, 0.1% Nonidet™ P-40, 5 mM EDTA, 10 mM NaF, 0.1 mM Na3VO4, and 1 mM PMSF) supplemented with complete protease inhibitors (Roche™) and homogenized by passage through a 28 gauge needle. Protein concentration was measured with a Bio-Rad™ protein assay dye reagent and results were read using a spectrophotometer (BiophotometerPlus™ by Eppendorf™). Protein extracts were resolved by SDS PAGE on gradient (Thermo Fisher™) or 12% gels. Proteins were then electrotransferred at 350 mA for 80 minutes onto a PVDF membrane (Immobilon-P PVDF). Membranes were blocked with PBST with 5% milk and 1% BSA for 30 minutes. Quantitation of blots was performed Image Studio Lite software (LI-COR Biosciences™).
One of the responses to DNA damage is activation of p53 by ATM. Upon DNA damage, ATM activation leads to p53 phosphorylation, which activates p53 as a transcription factor. Since increased DNA damage was observed upon C9 KD, whether p53 is activated in C9 depleted cells was investigated. First, total p53 levels were measured in U87 cells treated with control and two independent siRNAs against C9. […] Then, the levels of phosphorylated (active) p53 (at s15) was measured. Phosphorylation of s15 on p53 was increased in both C9 siRNA samples.

Molecule: CCN(c1nc(N)c(C(=O)NC(=N)N)nc1Cl)C(C)C [EIPA, 5-(N-ethyl-N-isopropyl) amiloride]
- vacuole formation (U87 cells [1]): significant inhibition of vacuole formation

Molecule: CCN(CC)CCCC(C)Nc1nc(C)cc(Nc2ccc3nc(C)cc(N)c3c2)n1 (stereo not drawn) [NSC23766]
- vacuoles per cell (U87 cells [2]): significant drop in vacuoles

Molecule: COC(=O)C[C@H](NC(=O)[C@H](C)NC(=O)[C@@H](NC(=O)OCc1ccccc1)C(C)C)C(=O)CF [Z-VAD-FMK] (Cbz-Val-Ala-Asp(OMe)-CH2F)
- rescue of cell viability (U87 cells [3]; C9 KD U87 cells): did not significantly rescue
- rescue of cell viability (U87 cells [3]; staurosporine (STS) treated U87 cells): able rescue viability

Molecule: COc1cccc2c1C(=O)c1c(O)c3c(c(O)c1C2=O)C[C@@](O)(C(=O)CO)C[C@@H]3O[C@H]1C[C@H](N)[C@H](O)[C@H](C)O1 [doxorubicin, Doxorubicin hydrochloride]
- p53 accumulation (p53 [4]): did not induce p53 accumulation

Molecule: siC9 #2: siRNA targeting C9 mRNA: GCACAUAUGGACUAUCAAUtt (SEQ ID NO:633; sense) and AUUGAUAGUCCAUAUGUGCtg (SEQ ID NO:634; antisense) (sense GCACAUAUGGACUAUCAAUTT; antisense AUUGAUAGUCCAUAUGUGCTG; chemistry not given here)
- DNA breaks (TUNEL) (U87 cells [5]): increase in DNA breaks
- p21 protein levels (p53 [6]): increased p21 protein levels
- phosphorylation of s15 on p53 (p53 [6]): increased
- total p53 levels (p53 [6]): elevates p53 levels
